The values that follow come from US20260183274A1, “PDK1 REGULATORY COMPOUND AND COMPOSITION CONTAINING THE SAME” (PROVIBIO CO., LTD., priority 2024, published 2026).

The viability is a read-out of living cells in per cent, often relative to untreated cells.

Data set [1] relates to T cells isolated from mouse spleens. Kind of data set: T cell proliferation inhibition (CFSE flow cytometry, anti-CD3/anti-CD28 stimulation). Conditions: mouse spleen T cells, 3 days; for inhibition at 0.01 µM / inhibition at 0.1 µM / inhibition at 1 µM / inhibition at 10 µM / inhibition at 30 µM / inhibition at 50 µM: Mus musculus, T-cell, 72 h, read-out: Proliferation inhibition rate (%). The data set is classed as cell-based. Put shortly:
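Splenic T cells from 7-week-old C57BL/6 mice were MACS-isolated, CFSE-labelled, seeded at 2×10^5 cells/well and activated with anti-CD3/anti-CD28 (0.5 μg/mL each). Compound at 10 nM–50 μM (six levels, triplicate) was present for 3 days at 37 °C before flow cytometric readout of proliferation inhibition rate.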
On the technique in general: Flow cytometry measures light scatter and fluorescence of single cells or particles in a stream.

Data set [2] concerns Human B Lymphocyte cell line, SU-DHL-8. The data set is described as follows: Relative cell viability CCK-8, SU-DHL-8. The data set is classed as cell-based. The settings on record: 48 hours, untreated (DMSO) = 100%; for viability at 1 µM / viability at 10 µM / viability at 30 µM / viability at 50 µM: Homo sapiens, SU-DHL-8, 48 h; for viability at 1 µM: read-out: Relative cell viability (%), SU-DHL-8, 1 μM; for viability at 10 µM: read-out: Relative cell viability (%), SU-DHL-8, 10 μM; for viability at 30 µM: read-out: Relative cell viability (%), SU-DHL-8, 30 μM; for viability at 50 µM: read-out: Relative cell viability (%), SU-DHL-8, 50 μM. An outline of the steps:
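Cells grown in RPMI-1640 with 10% FBS, treated with compound at several concentrations, then given CCK-8 for 4 h at 37° C. Viability expressed as percent of DMSO-treated cells.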

On to `CN1CCN(CCCCCCCCCCCCNC(=O)c2ccc3[nH]cnc3c2)CC1` [Compound 91, N-(12-(4-methylpiperazin-1-yl)dodecyl)-1H-benzo[d]imidazole-5-carboxamide], for which the inhibition at 0.01 µM in data set [1] (compound 10 nM) was -14.6%. Further, in data set [1] (compound 100 nM), the inhibition at 0.1 µM stood at 100%. For the same compound, the inhibition at 1 µM in data set [1] (compound 1 μM) amounted to 100%. Also, the inhibition at 10 µM in data set [1] (compound 10 μM) came out at 100%. The inhibition at 30 µM in data set [1] (compound 30 μM) amounted to 100%. Moreover, the inhibition at 50 µM in data set [1] (compound 50 μM) amounted to 100%. Also, in data set [2], the viability at 1 µM amounted to 3.93%, the viability at 10 µM was 3.12%, the viability at 30 µM came out at 1.84% and the viability at 50 µM was 1.59%.

With `Nc1ncccc1C(=O)CCCCCCCCCCCCCN1CC2CCC(C1)O2` [Compound 131, 1-(2-aminopyridin-3-yl)-14-(8-oxa-3-azabicyclo[3.2.1]octan-3-yl)tetradecan-1-one], the inhibition at 0.01 µM in data set [1] (compound 10 nM) was -6.12%. In addition, the inhibition at 0.1 µM in data set [1] (compound 100 nM) came to 100%. Moreover, the inhibition at 1 µM in data set [1] (compound 1 μM) is 100%. Also, the inhibition at 10 µM in data set [1] (compound 10 μM) stood at 100%. In addition, the inhibition at 30 µM in data set [1] (compound 30 μM) was found to be 100%. Besides, the inhibition at 50 µM in data set [1] (compound 50 μM) was 100%. Also, in data set [2], the viability at 1 µM amounted to 44.8%, the viability at 10 µM was 42.1%, the viability at 30 µM came out at 42.7% and the viability at 50 µM is 42.5%.

Consider `COC1CCN(CCCCCCCCCCCCNC(=O)c2cccnc2N)C1` (stereo not shown) [Compound 32, 2-Amino-N-(12-(3-methoxypyrrolidin-1-yl)dodecyl) nicotinamide], for which the “Proliferation inhibition rate (%)” value in data set [1] (compound 10 nM, listed as PBK-2024-024, 0.01 µM) was found to be 0.29%. In addition, the “Relative cell viability (%), SU-DHL-8” value in data set [2] (1 μM, listed as PBK-2024-024, 1 µM) amounted to 3.48%; in data set [2] (10 μM, listed as PBK-2024-024, 10 µM) it was 3.01%; in data set [2] (30 μM, listed as PBK-2024-024, 30 µM) it was 1.97%; in data set [2] (50 μM, listed as PBK-2024-024, 50 µM) it was 1.45%.

In the case of `Cc1ccc(C2CCN(CCCCCCCCCCCCNC(=O)c3cccnc3N)CC2)cc1` [Compound 55, 2-Amino-N-(12-(4-(p-tolyl)piperidin-1-yl)dodecyl) nicotinamide], the “Proliferation inhibition rate (%)” value was determined as 89.67% in data set [1] (compound 10 nM); 100.00% in data set [1] (compound 100 nM); 100.00% in data set [1] (compound 1 μM); 100.00% in data set [1] (compound 10 μM); 100.00% in data set [1] (compound 30 μM); 100.00% in data set [1] (compound 50 μM). In addition, the “Relative cell viability (%), SU-DHL-8” value in data set [2] (1 μM) was 9.36%; in data set [2] (10 μM), 4.92%; in data set [2] (30 μM), 1.10%; in data set [2] (50 μM), 0.97%.

As to `Nc1ncccc1C(=O)NCCCCCCCCCCCCN1CC(F)(F)C1` [Compound 122, 2-Amino-N-(12-(3,3-difluoroazetidin-1-yl)dodecyl) nicotinamide], the “Proliferation inhibition rate (%)” value was 0.00% in data set [1] (compound 10 nM); 0.00% in data set [1] (compound 100 nM); 80.00% in data set [1] (compound 1 μM); 100.00% in data set [1] (compound 10 μM); 100.00% in data set [1] (compound 30 μM); 100.00% in data set [1] (compound 50 μM). For the same compound, the “Relative cell viability (%), SU-DHL-8” value amounted to 31.84% in data set [2] (1 μM), 31.91% in data set [2] (10 μM), 32.93% in data set [2] (30 μM) and 35.70% in data set [2] (50 μM).

In the case of `CC1CNCCN1CCCCCCCCCCCCNC(=O)c1cccnc1N` (stereo not shown) [Compound 35, 2-Amino-N-(12-(2-methylpiperazin-1-yl)dodecyl) nicotinamide], the “Proliferation inhibition rate (%)” value in data set [1] (compound 10 nM) stood at 8.33%; in data set [1] (compound 100 nM), 100.00%; in data set [1] (compound 1 μM), 100.00%; in data set [1] (compound 10 μM) it was 100.00%; in data set [1] (compound 30 μM) it was 100.00%; in data set [1] (compound 50 μM) it was 100.00%. Besides, the figures for the “Relative cell viability (%), SU-DHL-8” value in data set [2] (1 μM), in data set [2] (10 μM) and in data set [2] (30 μM) were 1.18%, 0.64% and 0.42%, respectively.

`O=C(NCCCCCCCCCCCCF)c1ncccc1O` [Compound 64, 3-Hydroxy-pyridine-2-carboxylic acid (12-fluoro-dodecyl)-amide]: in data set [1] (compound 10 nM), the inhibition at 0.01 µM was -4.11%. In addition, the inhibition at 0.1 µM in data set [1] (compound 100 nM) is 8.63%. Besides, in data set [1] (compound 1 μM), the inhibition at 1 µM worked out at 6.99%. For the same compound, the inhibition at 10 µM in data set [1] (compound 10 μM) was 8.94%. The inhibition at 30 µM in data set [1] (compound 30 μM) turned out to be 80.4%. The inhibition at 50 µM in data set [1] (compound 50 μM) was found to be 97%. Moreover, in data set [2], the viability at 1 µM was 23.3%, the viability at 10 µM is 14.1%, the viability at 30 µM was 6.51% and the viability at 50 µM is 6.33%.

On to `CC1CCCN(CCCCCCCCCCCCNC(=O)c2cccnc2N)CC1` (stereo not shown) [Compound 39, 2-Amino-N-(12-(4-methylazepan-1-yl)dodecyl) nicotinamide], for which the “Proliferation inhibition rate (%)” value in data set [1] (compound 10 nM) is recorded as −58.92%; in data set [1] (compound 100 nM) it was 100.00%; in data set [1] (compound 1 μM) it was 100.00%; in data set [1] (compound 10 μM) it was 100.00%; in data set [1] (compound 30 μM), 100.00%; in data set [1] (compound 50 μM), 100.00%. The “Relative cell viability (%), SU-DHL-8” value in data set [2] (1 μM) came out at 11.48%; in data set [2] (10 μM), 8.41%; in data set [2] (30 μM) it was 6.24%; in data set [2] (50 μM) it was 4.27%.

Turning to `COC1CCN(CCCCCCCCCCCCNC(=O)c2cccnc2N)C1` (stereo not shown) [Compound 126, 2-amino-N-(12-(3-methoxypyrrolidin-1-yl)dodecyl) nicotinamide], the “Proliferation inhibition rate (%)” value came to 0.00% in data set [1] (compound 10 nM, listed as K-PB-48, 0.01 µM); 100.00% in data set [1] (compound 100 nM); 100.00% in data set [1] (compound 1 μM); 100.00% in data set [1] (compound 10 μM); 100.00% in data set [1] (compound 30 μM); 100.00% in data set [1] (compound 50 μM). Further, the “Relative cell viability (%), SU-DHL-8” value in data set [2] (1 μM, listed as K-PB-48, 1 µM) is reported as 33.03%; in data set [2] (10 μM, listed as K-PB-48, 10 µM), 31.98%; in data set [2] (30 μM, listed as K-PB-48, 30 µM), 32.32%; in data set [2] (50 μM, listed as K-PB-48, 50 µM) it was 30.44%.

In the case of `Nc1ncccc1C(=O)NCCCCCCCCCCCCN1CCC(F)C1` (stereo not shown) [Compound 26, 2-Amino-N-(12-(3-fluoropyrrolidin-1-yl)dodecyl) nicotinamide], the “Proliferation inhibition rate (%)” value in data set [1] (compound 10 nM) worked out at 2.13%; in data set [1] (compound 100 nM) it was 100.00%; in data set [1] (compound 1 μM), 100.00%; in data set [1] (compound 10 μM), 100.00%; in data set [1] (compound 30 μM) it was 100.00%; in data set [1] (compound 50 μM), 100.00%. Moreover, the results for the “Relative cell viability (%), SU-DHL-8” value in data set [2] (1 μM), in data set [2] (10 μM) and in data set [2] (30 μM) were 1.70%, 1.04% and 0.05%, respectively.

In the case of `Nc1ncccc1C(=O)NCCCCCCCCCCCCn1nnc2cccnc21` [Compound 88, N-(12-(3H-[1,2,3]triazolo[4,5-b]pyridin-3-yl)dodecyl)-2-aminonicotinamide], the inhibition at 0.01 µM in data set [1] (compound 10 nM) was -3.22%. In data set [1] (compound 100 nM), the inhibition at 0.1 µM was determined as 4.29%. Also, in data set [1] (compound 1 μM), the inhibition at 1 µM amounted to 56.3%. In addition, the inhibition at 10 µM in data set [1] (compound 10 μM) came to 100%. The inhibition at 30 µM in data set [1] (compound 30 μM) worked out at 100%. Also, in data set [1] (compound 50 μM), the inhibition at 50 µM came to 100%. Further, in data set [2], the viability at 1 µM was determined as 12.6%, the viability at 10 µM was 5.98%, the viability at 30 µM is 5.06% and the viability at 50 µM worked out at 2.23%.
